Measurements as given in PMC10042540, “Targeting oncogenic KRasG13C with nucleotide-based covalent inhibitors” (eLife, 2023).

Key:
tAkt1 = assay: Electroporation into HeLa cells, western blot quantification; type: cell-based, human; settings: for tAkt mean fold change: mean of cell lysates
Method in brief: (§1)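 HeLa cells electroporated (2×35 ms, 1000 V) with 0–300 µg recombinant full-length KRas WT or G13C constructs, washed, then recovered for 24 h at 37 °C. Lysates (10 µg protein) analysed by SDS-PAGE and fluorescent western blotting, with protein levels quantified from blot signal.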

pS6S235/236 = assay: as above; type: cell-based, human; settings: for pS6 mean fold change: mean of cell lysates
Method in brief: as §1

tErk = assay: as above; type: cell-based, human; settings: for tErk mean fold change: mean of cell lysates
Method in brief: as §1

[1] = system: farnesyltransferase (FTase); assay: In vitro farnesylation; type: biochemical; settings: full-length protein, FPP, ESI-MS
Protocol: 50 µM of full-length KRas protein was mixed with 250 µM farnesyl pyrophosphate (FPP) and 10 µM farnesyltransferase (FTase). After incubation at room temperature for 1 hr the mixture was centrifugated at 14,000 rpm for 10 min at 4 °C and analyzed via ESI-MS (Figure 3—figure supplement 4).

SOS = assay: Guanine nucleotide-exchange factor assay (mantdGDP fluorescence); type: biochemical
Protocol: SOS-catalysed nucleotide exchange was monitored at 25 °C in a FluoroMax-3 spectrofluorometer (excitation at 360 nm, emission at 440 nm) in 20 mM HEPES (pH 7.5), 100 mM NaCl, 2 mM MgCl2, and 1 mM TCEP. 5 µM KRas1-169 was mixed with 10 µM mantdGDP and subsequently with different concentrations of SOS (0.25 µM and 0.5 µM) (Figure 3A; Figure 3—figure supplement 1).

[2] = system: Ras pathway (pcRaf, pAkt, pErk, pS6); assay: Electroporation into HeLa cells, western blot of downstream signalling; type: cell-based, human; settings: electroporation of 50-300 µg protein
Method in brief: as §1

## KRasG13C-edaGDP: KRasG13C covalently locked with edaGDP at Cys13
tAkt1; 50 µg, Cell lysate 1
  tAkt fold change: 0.65
tAkt1; 50 µg, Cell lysate 2
  tAkt fold change: 1.23
tAkt1; 50 µg, Cell lysate 3
  tAkt fold change: 1.06
tAkt1; 50 µg
  tAkt mean fold change: 0.98
tAkt1; 100 µg, Cell lysate 1
  tAkt fold change: 0.92
tAkt1; 100 µg, Cell lysate 2
  tAkt fold change: 1.65
tAkt1; 100 µg, Cell lysate 3
  tAkt fold change: 0.97
tAkt1; 100 µg
  tAkt mean fold change: 1.18
tAkt1; 200 µg, Cell lysate 1
  tAkt fold change: 1.06
tAkt1; 200 µg, Cell lysate 2
  tAkt fold change: 1.22
tAkt1; 200 µg, Cell lysate 3
  tAkt fold change: 0.78
tAkt1; 200 µg
  tAkt mean fold change: 1.02
tAkt1; 300 µg, Cell lysate 1
  tAkt fold change: 0.92
tAkt1; 300 µg, Cell lysate 2
  tAkt fold change: 0.97
tAkt1; 300 µg, Cell lysate 3
  tAkt fold change: 0.68
tAkt1; 300 µg
  tAkt mean fold change: 0.86
pS6S235/236; 50 µg, Cell lysate 1
  pS6 fold change: 0.80
pS6S235/236; 50 µg, Cell lysate 2
  pS6 fold change: 1.31
pS6S235/236; 50 µg, Cell lysate 3
  pS6 fold change: 0.76
pS6S235/236; 50 µg
  pS6 mean fold change: 0.96
pS6S235/236; 100 µg, Cell lysate 1
  pS6 fold change: 0.91
pS6S235/236; 100 µg, Cell lysate 2
  pS6 fold change: 1.13
pS6S235/236; 100 µg, Cell lysate 3
  pS6 fold change: 0.75
pS6S235/236; 100 µg
  pS6 mean fold change: 0.93
pS6S235/236; 200 µg, Cell lysate 1
  pS6 fold change: 1.23
pS6S235/236; 200 µg, Cell lysate 2
  pS6 fold change: 1.03
pS6S235/236; 200 µg, Cell lysate 3
  pS6 fold change: 0.88
pS6S235/236; 200 µg
  pS6 mean fold change: 1.05
pS6S235/236; 300 µg, Cell lysate 1
  pS6 fold change: 0.98
pS6S235/236; 300 µg, Cell lysate 2
  pS6 fold change: 0.98
pS6S235/236; 300 µg, Cell lysate 3
  pS6 fold change: 0.76
pS6S235/236; 300 µg
  pS6 mean fold change: 0.91
tErk; 50 µg, Cell lysate 1
  tErk fold change: 0.84
tErk; 50 µg, Cell lysate 2
  tErk fold change: 2.08
tErk; 50 µg, Cell lysate 3
  tErk fold change: 0.64
tErk; 50 µg
  tErk mean fold change: 1.19
tErk; 100 µg, Cell lysate 1
  tErk fold change: 0.91
tErk; 100 µg, Cell lysate 2
  tErk fold change: 1.86
tErk; 100 µg, Cell lysate 3
  tErk fold change: 0.78
tErk; 100 µg
  tErk mean fold change: 1.18
tErk; 200 µg, Cell lysate 1
  tErk fold change: 1.12
tErk; 200 µg, Cell lysate 2
  tErk fold change: 1.76
tErk; 200 µg, Cell lysate 3
  tErk fold change: 0.74
tErk; 200 µg
  tErk mean fold change: 1.21
tErk; 300 µg, Cell lysate 1
  tErk fold change: 1.26
tErk; 300 µg, Cell lysate 2
  tErk fold change: 1.23
tErk; 300 µg, Cell lysate 3
  tErk fold change: 0.72
tErk; 300 µg
  tErk mean fold change: 1.07
[1]
  in vitro farnesylation: fully farnesylated
SOS; 5 µM KRas1-169, 10 µM mantdGDP, 0.25 or 0.5 µM SOS
  SOS-catalysed nucleotide exchange: unable to do so
SOS; absence of SOS
  intrinsic nucleotide exchange rate: abrogated
[2]
  downstream signalling (pcRaf, pAkt, pErk, pS6): unable to induce these effects
